Results taken from patent publication US20260042764A1, “COMPOSITIONS AND METHODS FOR INHIBITION OF KRAS” (TheRas, Inc., priority 2022, published 2026).

Experiments:
[1] = tested on: GP2d cells (KRAS G12D); test: Cell-based pERK HTRF assay in GP2d cell (Biological Example 2)
Summary of the method: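 Cells grown in DMEM with 10% FBS were exposed to compound for 60 min at 0.25% DMSO, using a 9-point half-log series starting at 1 μM or 100 nM. Lysates were then mixed with d2 and Eu cryptate antibodies for 4–24 h at room temperature, and pERK was read by HTRF.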

[2] = target: T1, Avi-KRAS G12D (2-169) GTP/RAF1 RBD-3xFLAG (51-131) (Homo sapiens, UniProt P01116, G12D); test: Raf1-KRAS G12D-GTP disruption HTRF assay (Biological Example 3); type: binding
T1 construct: Avi-KRAS G12D (2-169)
Experimental: (§1) Biological Example 3: Disrupting RAS-Effector Binding HTRF Assay
(§2) A protein:protein interaction (PPI) Homogeneous Time Resolved Fluorescence (HTRF) assay was used to determine the effectiveness of compounds in disrupting KRAS protein and effector (RAF1) binding.
(§3) The HTRF assay used the following reagents and proteins: (i) 50 nM Avi-KRAS G12D (2-169) GTP/RAF1 RBD-3xFLAG (51-131): (ii) 50 nM Avi-KRAS G12C (2-169) GTP/RAF1 RBD-3xFLAG (51-131): (iii) 50 nM Avi-KRAS G12V (2-169) GTP/RAF1 RBD-3xFLAG (51-131); (iv) 50 nM Avi-KRAS WT (2-169) GTP/RAF1 RBD-3xFLAG (51-131); and (v) 75 nM 3xFLAG-RAF1 RBD (51-131)-Avi. The assay buffer included: 50 mM Tris pH 7.5 (Invitrogen, 15567-027), 100 mM NaCl (Sigma, S5150-IL), 5 mM MgCl2 (Sigma, 63069), 0.1% BSA (Sigma, A7030), 0.01% Tween 20 (Sigma, P7949), 10% DMSO (Cell Signaling, 12611). The bead buffer included: 50 mM Tris pH 7.5 (Invitrogen, 15567-027), 0.01% Tween 20 (Sigma, P7949). An assay volume of 20 μL was used in a 384 well plate-low volume format. Compound titration: 30-0.005 μM, 3x dilution series.
(§4) The HTRF assay employed the following protocol:
(§5) Compounds were dispensed in assay plate (384-well, Grenier Bio-One #784075) using Echo (model 555) with dose response settings: 200 nL final volume, titration from 30 μM as a 10-point dilution series. Proteins and HTRF reagents were mixed and dispensed onto plates, 20 μL per well, and then incubated for 1 h at room temperature, with 700 rpm shaking.
(§6) Plates were analyzed on an Envision plate reader using the following setting: Excitation 320 nm, Bandwidth 75 nm; Emission 615 nm, Bandwidth 85 nm; Gain 100%; Flashes 100; Lag 60 μs. Data was reported as percentage of activity, with DMSO as 100%. Data was plotted and analyzed using Prism 8.
(§7) The biochemical Raf1-KRAS G12D/G12V/G12C/WT-GTP disruption assay IC50 of selected compounds described herein are shown in Table 12.

[3] = target: T2, Avi-KRAS G12C (2-169) GTP/RAF1 RBD-3xFLAG (51-131) (Homo sapiens, UniProt P01116, G12C); test: Raf1-KRAS G12C-GTP disruption HTRF assay (Biological Example 3); type: binding
T2 construct: Avi-KRAS G12C (2-169)
Experimental: as §1, §2, §3, §4, §5, §6, §7

[4] = target: T3, Avi-KRAS G12V (2-169) GTP/RAF1 RBD-3xFLAG (51-131) (Homo sapiens, UniProt P01116, G12V); test: Raf1-KRAS G12V-GTP disruption HTRF assay (Biological Example 3); type: binding
T3 construct: Avi-KRAS G12V (2-169)
Experimental: as §1, §2, §3, §4, §5, §6, §7

[5] = target: T4, Avi-KRAS WT (2-169) GTP/RAF1 RBD-3xFLAG (51-131) (Homo sapiens, UniProt P01116); test: Raf1-KRAS WT-GTP disruption HTRF assay (Biological Example 3); type: binding
T4 construct: Avi-KRAS WT (2-169)
Experimental: as §1, §2, §3, §4, §5, §6, §7

[6] = tested on: SW620 cells (KRAS G12V); test: Cell-based pERK HTRF assay in SW620 cell (Biological Example 4)
Summary of the method: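 Read-out: HTRF pERK signal (excitation 320 nm, emission 615 nm) from lysates of SW620 cells after 4 h compound exposure. Dose range was 9 points, half-log steps from 1 μM, in 0.25% DMSO; antibody incubation ran 4–24 h at room temperature.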

[7] = Homo sapiens, SW-620, SW620 (KRAS G12V) cells

T3 sequence (P01116 2-169 isoform P01116-2 G12V): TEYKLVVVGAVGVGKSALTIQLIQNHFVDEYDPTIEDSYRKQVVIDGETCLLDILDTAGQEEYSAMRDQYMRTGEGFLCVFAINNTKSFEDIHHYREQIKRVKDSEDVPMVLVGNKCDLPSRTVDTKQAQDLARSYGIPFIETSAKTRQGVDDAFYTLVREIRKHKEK
T2 sequence (P01116 2-169 isoform P01116-2 G12C): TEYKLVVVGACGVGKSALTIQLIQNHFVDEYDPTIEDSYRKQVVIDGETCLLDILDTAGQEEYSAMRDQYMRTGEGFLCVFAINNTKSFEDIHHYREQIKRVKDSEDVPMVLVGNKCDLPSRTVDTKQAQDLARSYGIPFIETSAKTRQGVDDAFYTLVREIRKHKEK
T1 sequence (P01116 2-169 isoform P01116-2 G12D): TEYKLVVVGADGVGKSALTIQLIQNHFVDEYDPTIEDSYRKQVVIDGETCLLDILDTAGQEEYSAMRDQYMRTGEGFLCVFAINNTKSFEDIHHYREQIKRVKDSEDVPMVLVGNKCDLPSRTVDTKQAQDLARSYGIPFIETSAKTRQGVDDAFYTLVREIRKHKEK
T4 sequence (P01116 2-169 isoform P01116-2): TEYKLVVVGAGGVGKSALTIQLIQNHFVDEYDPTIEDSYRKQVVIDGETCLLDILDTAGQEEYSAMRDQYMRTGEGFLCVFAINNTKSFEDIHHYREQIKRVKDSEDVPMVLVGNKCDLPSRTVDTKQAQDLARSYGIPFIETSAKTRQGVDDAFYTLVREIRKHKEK

IC50 ([1]; GP2d, GP2d (KRAS G12D) cells) [nM]	IC50 ([2]; KRAS G12D, GTP-loaded) [nM]	IC50 ([3]; KRAS G12C, GTP-loaded) [nM]	IC50 ([4]; KRAS G12V, GTP-loaded) [nM]	IC50 ([5]; KRAS WT, GTP-loaded) [nM]	IC50 [6, 7] [nM]	IC50 ([1]; GP2d (KRAS G12D) cells) [nM]	IC50 ([6]; SW620 (KRAS G12V) cells) [nM]	IC50 ([1]; GP2d, GP2d cells (KRAS G12D)) [nM]	IC50 ([2]; KRAS G12D-GTP / RAF1 RBD HTRF) [nM]	IC50 ([3]; KRAS G12C-GTP / RAF1 RBD HTRF) [nM]	IC50 ([4]; KRAS G12V-GTP / RAF1 RBD HTRF) [nM]	IC50 ([5]; KRAS WT-GTP / RAF1 RBD HTRF) [nM]	IC50 ([6]; Homo sapiens, SW-620, SW620 cells (KRAS G12V)) [nM]	SMILES
< 100	100 to 1000	≤ 100	100 to 1000	100 to 1000	< 100	–	–	–	–	–	–	–	–	CCN(c1nc(OC[C@@]23CCCN2C[C@H](F)C3)nc2c(F)c(-c3ccc(F)c4sc(N)c(C#N)c34)c(C(F)(F)F)cc12)[C@H]1CCN(C(=O)O[C@H]2CO[C@H]3OCC[C@H]32)C1 (atropisomer, axis not shown) [Compound 816]
< 100	100 to 1000	100 to 1000	100 to 1000	100 to 1000	< 100	–	–	–	–	–	–	–	–	CCN(c1nc(OC[C@@]23CCCN2C[C@H](F)C3)nc2c(F)c(-c3ccc(F)c4sc(N)c(C#N)c34)c(C(F)(F)F)cc12)[C@@H]1CCN(C(=O)[C@@H]2CCO2)[C@@H]1C (atropisomer, axis not shown) [Compound 931]
–	1000 to 10000	1000 to 10000	> 10000	> 10000	–	< 100	100 to 1000	–	–	–	–	–	–	CCN(c1nc(OC[C@@]23CCCN2C[C@H](F)C3)nc2c(F)c(-c3ccc(F)c4sc(N)c(C#N)c34)c(C(F)(F)F)cc12)C1CCN(C(=O)OC)C1 (stereo partly drawn) [Compound 947]
< 100	100 to 1000	1000 to 10000	1000 to 10000	1000 to 10000	< 100	–	–	–	–	–	–	–	–	CCN(c1nc(OC[C@@H]2C[C@@H](OC)CN2C)nc2c(F)c(-c3ccc(F)c4sc(N)c(C#N)c34)c(C(F)(F)F)cc12)[C@H]1CCN(C(=O)OC)C1 [Compound 871]
< 100	100 to 1000	1000 to 10000	100 to 1000	1000 to 10000	< 100	–	–	–	–	–	–	–	–	CN(Cc1ccon1)c1nc(OC[C@@]23CCCN2C[C@H](F)C3)nc2c(F)c(-c3ccc(F)c4sc(N)c(C#N)c34)c(C(F)(F)F)cc12 (atropisomer, axis not shown) [Compound 856]
< 100	100 to 1000	100 to 1000	100 to 1000	100 to 1000	< 100	–	–	–	–	–	–	–	–	CCN(c1nc(OC[C@@]23CCCN2C[C@H](F)C3)nc2c(F)c(-c3ccc(F)c4sc(N)c(C#N)c34)c(C(F)(F)F)cc12)[C@H]1C[C@H]2CN(CC(F)(F)F)C(=O)N2C1 (atropisomer, axis not shown) [Compound 951]
< 100	100 to 1000	1000 to 10000	1000 to 10000	100 to 1000	< 100	–	–	–	–	–	–	–	–	CCN(c1nc(OC[C@@]23CCCN2C[C@H](F)C3)nc2c(F)c(-c3ccc(F)c4sc(N)c(C#N)c34)c(C(F)(F)F)cc12)[C@H]1CC[C@@H](C(=O)N(C)C)C1 (atropisomer, axis not shown) [Compound 661]
< 100	100 to 1000	100 to 1000	1000 to 10000	1000 to 10000	< 100	–	–	–	–	–	–	–	–	CCN(c1nc(OC[C@@]23CCCN2C[C@H](F)C3)nc2c(F)c(-c3ccc(F)c4sc(N)c(C#N)c34)c(C(F)(F)F)cc12)[C@H]1CCN(C(=O)O[C@H](C)C(F)(F)F)C1 (atropisomer, axis not shown) [Compound 850]
< 100	100 to 1000	100 to 1000	100 to 1000	100 to 1000	< 100	–	–	–	–	–	–	–	–	CCN(c1nc(OC[C@@]23CCCN2C[C@H](F)C3)nc2c(F)c(-c3ccc(F)c4sc(N)c(C#N)c34)c(C(F)(F)F)cc12)[C@H]1CCN(C(=O)N(C)C)[C@@H]1COC (atropisomer, axis not shown) [Compound 921]
< 100	100 to 1000	1000 to 10000	1000 to 10000	100 to 1000	< 100	–	–	–	–	–	–	–	–	CCN(c1nc(OC[C@@]23CCCN2C[C@H](F)C3)nc2c(F)c(-c3ccc(F)c4sc(N)c(C#N)c34)c(C(F)(F)F)cc12)[C@@H]1CCCN(C)C1=O (atropisomer, axis not shown) [Compound 968]
< 100	≤ 100	≤ 100	≤ 100	100 to 1000	< 100	–	–	–	–	–	–	–	–	CCN(c1nc(OC[C@@]23CCCN2C[C@H](F)C3)nc2c(F)c(-c3ccc(F)c4sc(N)c(C#N)c34)c(C(F)(F)F)cc12)[C@H]1CCN(C(=O)O[C@@H]2CO[C@H]3OCC[C@H]32)C1 (atropisomer, axis not shown) [Compound 834]
< 100	100 to 1000	100 to 1000	100 to 1000	100 to 1000	< 100	–	–	–	–	–	–	–	–	CCN(c1nc(OC[C@@]23CCCN2C[C@H](F)C3)nc2c(F)c(-c3ccc(F)c4sc(N)c(C#N)c34)c(C(F)(F)F)cc12)[C@H]1C[C@H]2[C@@H](C)OC(=O)N2C1 (atropisomer, axis not shown) [Compound 823]
< 100	100 to 1000	100 to 1000	100 to 1000	100 to 1000	< 100	–	–	–	–	–	–	–	–	[2H][C@]1(N(CC)c2nc(OC[C@@]34CCCN3C[C@H](F)C4)nc3c(F)c(-c4ccc(F)c5sc(N)c(C#N)c45)c(C(F)(F)F)cc23)CCN(C(=O)N(C)C)C1 (atropisomer, axis not shown) [Compound 859]
< 100	100 to 1000	1000 to 10000	1000 to 10000	100 to 1000	< 100	–	–	–	–	–	–	–	–	CCN(c1nc(OC[C@@]23CCCN2C[C@H](F)C3)nc2c(F)c(-c3ccc(F)c4sc(N)c(C#N)c34)c(C(F)(F)F)cc12)[C@H]1CC[C@H](C(=O)N(C)C)C1 (atropisomer, axis not shown) [Compound 660]
< 100	100 to 1000	100 to 1000	100 to 1000	100 to 1000	< 100	–	–	–	–	–	–	–	–	CCN(c1nc(OC[C@@]23CCCN2C[C@H](F)C3)nc2c(F)c(-c3ccc(F)c4sc(N)c(C#N)c34)c(C(F)(F)F)cc12)[C@H]1C[C@H](COC)N(C(=O)[C@@H]2CCO2)C1 (atropisomer, axis not shown) [Compound 853]
–	–	–	–	–	–	–	–	< 100	100 to 1000	100 to 1000	100 to 1000	100 to 1000	< 100	CN(c1nc(OC[C@@]23CCCN2C[C@H](F)C3)nc2c(F)c(-c3ccc(F)c4sc(N)c(C#N)c34)c(C(F)(F)F)cc12)[C@@H]1CCCc2ccncc21 (atropisomer, axis not shown) [Compound 972]
< 100	≤ 100	100 to 1000	≤ 100	100 to 1000	< 100	–	–	–	–	–	–	–	–	CCN(c1nc(OC[C@@]23CCCN2C[C@H](F)C3)nc2c(F)c(-c3ccc(F)c4sc(N)c(C#N)c34)c(C(F)(F)F)cc12)[C@H]1CCN(C(=O)c2cnc(C)s2)C1 (atropisomer, axis not shown) [Compound 902]
